Results taken from BigSolDB 2.1.

c1ccc(-n2c(-c3cc(-c4nc5ccccc5n4-c4ccccc4)cc(-c4nc5ccccc5n4-c4ccccc4)c3)nc3ccccc32)cc1
solubility (mole fraction)
Settings | 283.15 K | 293.15 K | 303.15 K | 313.15 K | 323.15 K
in DMSO | – | 0.00119 | 0.00151 | 0.0023 | 0.0032
in THF | 0.00159 | 0.00202 | 0.00277 | 0.0042 | 0.00451
in acetonitrile | 0.000114 | 0.000135 | 0.000149 | 0.000188 | 0.000232
in chlorobenzene | 0.00588 | 0.00711 | 0.00857 | 0.00941 | 0.0111
in chloroform | 0.00762 | 0.00839 | 0.0092 | 0.01 | 0.0113
in cyclohexane | 2e-07 | 4e-07 | 6e-07 | 1.1e-06 | 1.9e-06
in ethanol | 0.000357 | 0.000437 | 0.000542 | 0.000716 | 0.000932
in ethyl acetate | 0.000711 | 0.000777 | 0.000921 | 0.0012 | 0.00174
in isopropanol | 1.11e-05 | 2.18e-05 | 3.04e-05 | 4.51e-05 | 6.88e-05
in methanol | 0.000236 | 0.000259 | 0.00029 | 0.000307 | 0.000361
in n-butanol | 0.00117 | 0.00132 | 0.00155 | 0.00167 | 0.00192
in n-hexane | 3.9e-06 | 5.8e-06 | 9.5e-06 | 1.46e-05 | 2.22e-05
